This assay deals with T1, PRL3 (Homo sapiens, UniProt O75365).
T1 construct: gene PTP4A3; residues 1-169 in pET15b, His6 tag with thrombin site, N-terminal Gly-Ser-His extension left; wild type; expressed in E. coli
Nature of the assay: phosphorylation of catalytic Cys104 followed on Phos-tag SDS-PAGE. In kind it is biochemical. The settings on record: no magnesium; 43 µM PRL3, 20 mM HEPES, 100 mM NaCl, 10 mM DTT, pH 7.0; 30 °C and room temperature; estimate from concentration dependence; covalent phosphocysteine formed.

T1 sequence (O75365 1-169): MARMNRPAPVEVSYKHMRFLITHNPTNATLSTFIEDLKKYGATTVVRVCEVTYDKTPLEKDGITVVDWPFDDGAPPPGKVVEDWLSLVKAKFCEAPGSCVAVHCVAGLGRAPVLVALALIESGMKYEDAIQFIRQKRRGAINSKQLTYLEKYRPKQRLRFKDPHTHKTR

In the case of `Nc1ncnc2c1ncn2[C@@H]1O[C@H](COP(=O)(O)OP(=O)(O)OP(=O)(O)O)[C@@H](O)[C@H]1O` [ATP], the Km was > 2 mM.

The values are drawn from PMC5427921, “PRL3 phosphatase active site is required for binding the putative magnesium transporter CNNM3” (Scientific Reports, 2017).
